The IC50 is the concentration at which inhibition is half-maximal.

SMILES strings stand for the structures.

The source of these data is patent publication US20130303509A1, “NAMPT INHIBITORS” (AbbVie Inc., priority 2012, published 2013).

For the assay, the system named is PC3 cells. Kind of assay: NAMPT Cell Proliferation Assay. It counts as cell-based. The conditions noted are these: Homo sapiens, PC-3, 120 h, 5 days incubation, cell viability by Cell Titer Glo. The essentials: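 Seeded at 500 cells/well in RPMI with 10% heat-inactivated FBS and left to attach overnight at 37° C, 5% CO2. Compounds were added as 10-fold dilutions […] for 5 days, then viability was read by CellTiter-Glo. IC50s came from sigmoidal fits of percent inhibition.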
Background: Cellular ATP, detected with luciferase, serves as a proxy for viable cell number.
`O=C(Nc1ccc(O[C@@H]2CCN(C(=O)c3cccs3)C2)cc1)C1CN(c2ccnnc2)C1` [Example 469, 1-(pyridazin-4-yl)-N-(4-{[(3R)-1-(thiophen-2-ylcarbonyl)pyrrolidin-3-yl]oxy}phenyl)azetidine-3-carboxamide] yielded an IC50 of 8.61 nM. This counts as single-digit nanomolar.

Regarding `CCOCC(=O)N1CCC(c2ccc(NC(=O)C3CN(c4cccnc4C)C3)cc2)CC1` [Example 191, N-{4-[1-(ethoxyacetyl)piperidin-4-yl]phenyl}-1-(2-methylpyridin-3-yl)azetidine-3-carboxamide], 677 nM corresponded to half-maximal inhibition (IC50). Against the preceding compound, the IC50 is about 79-fold higher.

Compound `CC(C)(O)Cn1cc(-c2ccc(NC(=O)[C@H]3CCN(c4cccnn4)C3)cc2)cn1` [Example 757, (3S)-N-{4-[1-(2-hydroxy-2-methylpropyl)-1H-pyrazol-4-yl]phenyl}-1-(pyridazin-3-yl)pyrrolidine-3-carboxamide] returned an IC50 of 67.7 nM.

In the case of `Cc1ncccc1N1CC(C(=O)Nc2ccc(C3CCN(C(=O)c4cccc(F)c4)CC3)cc2)C1` [Example 152, N-{4-[1-(3-fluorobenzoyl)piperidin-4-yl]phenyl}-1-(2-methylpyridin-3-yl)azetidine-3-carboxamide], the midpoint of inhibition, the IC50, lay at 116 nM.

`O=C(Nc1ccc(S(=O)(=O)C2CCN(C(=O)c3ccc(C(F)(F)F)cc3)CC2)cc1)C1CN(c2cccnn2)C1` [Example 587, 1-(pyridazin-3-yl)-N-[4-({1-[4-(trifluoromethyl)benzoyl]piperidin-4-yl}sulfonyl)phenyl]azetidine-3-carboxamide] yielded an IC50 of 81.4 nM. This IC50 and that of the compound before are within 1.5-fold of each other.

Compound `O=C(Nc1ccc(C2CCN(C(=O)c3ccccc3Cl)CC2)cc1)C1CN(c2ccnnc2)C1` [Example 525, N-{4-[1-(2-chlorobenzoyl)piperidin-4-yl]phenyl}-1-(pyridazin-4-yl)azetidine-3-carboxamide] had an IC50 of 0.93 nM.

For `O=C(Nc1ccc(O[C@@H]2CCN(C(=O)c3nccs3)C2)cc1)C1CN(c2cccnn2)C1` [Example 484, 1-(pyridazin-3-yl)-N-(4-{[(3R)-1-(1,3-thiazol-2-ylcarbonyl)pyrrolidin-3-yl]oxy}phenyl)azetidine-3-carboxamide], the 50% inhibitory concentration (IC50) came out at 0.56 nM.

The compound `CC[C@H](C)C(=O)N1CC[C@@H](Oc2ccc(NC(=O)C3CN(c4cccnn4)C3)cc2)C1` [Example 486, N-[4-({(3R)-1-[(2S)-2-methylbutanoyl]pyrrolidin-3-yl}oxy)phenyl]-1-(pyridazin-3-yl)azetidine-3-carboxamide] yielded an IC50 of 6.24 nM.

`CN(C)CCC(=O)N1CCC(Oc2ccc(NC(=O)C3CN(c4cccnc4)C3)cc2)CC1` [Example 67, N-(4-{[1-(N,N-dimethyl-beta-alanyl)piperidin-4-yl]oxy}phenyl)-1-(pyridin-3-yl)azetidine-3-carboxamide] yielded an IC50 of 386 nM.

For `O=C(Nc1ccc(C2CCN(C(=O)c3nccs3)CC2)cc1)C1CN(c2cccnc2)C1` [Example 108, 1-(pyridin-3-yl)-N-{4-[1-(1,3-thiazol-2-ylcarbonyl)piperidin-4-yl]phenyl}azetidine-3-carboxamide], half-maximal inhibition (IC50) required 0.13 nM.

In turn, `O=C(Nc1ccc(OC2CCN(C(=O)c3ccccc3Cl)CC2)cc1)C1CN(c2cccnn2)C1` [Example 211, N-(4-{[1-(2-chlorobenzoyl)piperidin-4-yl]oxy}phenyl)-1-(pyridazin-3-yl)azetidine-3-carboxamide] yielded an IC50 of 5.94 nM.

For `O=C(Nc1ccc(C2CCN(C(=O)c3ccc(Cl)cc3)CC2)cc1)C1CN(c2ccnnc2)C1` [Example 545, N-{4-[1-(4-chlorobenzoyl)piperidin-4-yl]phenyl}-1-(pyridazin-4-yl)azetidine-3-carboxamide], it took 15.2 nM to reach half-maximal inhibition (IC50).

In turn, `CCC(C)CN1CCC(Oc2ccc(NC(=O)C3CN(c4cccnc4)C3)cc2)CC1` (stereo not drawn) [Example 80, N-(4-{[1-(2-methylbutyl)piperidin-4-yl]oxy}phenyl)-1-(pyridin-3-yl)azetidine-3-carboxamide] had an IC50 of 25.5 nM.

`COCC(=O)N1CC[C@@H](Oc2ccc(NC(=O)C3CN(c4ccnnc4)C3)cc2)C1` [Example 468, N-(4-{[(3R)-1-(methoxyacetyl)pyrrolidin-3-yl]oxy}phenyl)-1-(pyridazin-4-yl)azetidine-3-carboxamide] had an IC50 of 730 nM.

The compound `Cn1cccc1C(=O)N1CCC(c2ccc(NC(=O)C3CN(c4cccnc4)C3)cc2)CC1` [Example 128, N-(4-{1-[(1-methyl-1H-pyrrol-2-yl)carbonyl]piperidin-4-yl}phenyl)-1-(pyridin-3-yl)azetidine-3-carboxamide] had an IC50 of 0.16 nM.

In turn, `CC1CC1C(=O)N1CCC(Oc2ccc(NC(=O)C3CN(c4cccnc4)C3)cc2)CC1` (stereo not drawn) [Example 35, N-[4-({1-[(2-methylcyclopropyl)carbonyl]piperidin-4-yl}oxy)phenyl]-1-(pyridin-3-yl)azetidine-3-carboxamide] had an IC50 of 6.92 nM. This IC50 lies about 43-fold higher than the previous one.

In turn, `Cc1ncccc1N1CC(C(=O)Nc2ccc(C3CCN(C(=O)c4ccoc4)CC3)cc2)C1` [Example 165, N-{4-[1-(furan-3-ylcarbonyl)piperidin-4-yl]phenyl}-1-(2-methylpyridin-3-yl)azetidine-3-carboxamide] showed an IC50 of 68.2 nM.

The compound `O=C(Nc1ccc(C2CCN(C(=O)CC(F)(F)F)CC2)cc1)C1CN(c2ccnnc2)C1` [Example 557, 1-(pyridazin-4-yl)-N-{4-[1-(3,3,3-trifluoropropanoyl)piperidin-4-yl]phenyl}azetidine-3-carboxamide] yielded an IC50 of 10.2 nM. This IC50 is about 6.7-fold lower than that of the compound before.

Compound `N#Cc1ccc(C(=O)N2CCC(c3ccc(NC(=O)[C@H]4CCN(c5cccnn5)C4)cc3)CC2)cc1` [Example 726, (3S)-N-{4-[1-(4-cyanobenzoyl)piperidin-4-yl]phenyl}-1-(pyridazin-3-yl)pyrrolidine-3-carboxamide] displayed an IC50 of 32.7 nM.

`O=C(Nc1ccc(C2CCN(C(=O)c3nccs3)CC2)cc1)C1CN(c2ccnnc2)C1` [Example 526, 1-(pyridazin-4-yl)-N-{4-[1-(1,3-thiazol-2-ylcarbonyl)piperidin-4-yl]phenyl}azetidine-3-carboxamide] displayed an IC50 of 0.94 nM.

With `C=CCC(=O)N1CCC(c2ccc(NC(=O)C3CN(c4cccnn4)C3)cc2)CC1` [Example 330, N-{4-[1-(but-3-enoyl)piperidin-4-yl]phenyl}-1-(pyridazin-3-yl)azetidine-3-carboxamide], the IC50 was found to be 1.38 nM. This IC50 and that of the compound before are within 1.5-fold of each other.

Compound `O=C(Nc1ccc(OC2CCN(C(=O)Cc3ccc(F)cc3F)CC2)cc1)C1CN(c2cccnn2)C1` [Example 236, N-[4-({1-[(2,4-difluorophenyl)acetyl]piperidin-4-yl}oxy)phenyl]-1-(pyridazin-3-yl)azetidine-3-carboxamide] returned an IC50 of 9.25 nM.

As to `CCCCCCC(=O)N1CCC(c2ccc(NC(=O)[C@H]3CCN(c4cccnn4)C3)cc2)CC1` [Example 673, (3S)-N-[4-(1-heptanoylpiperidin-4-yl)phenyl]-1-(pyridazin-3-yl)pyrrolidine-3-carboxamide], the IC50 turned out to be 11.6 nM. The IC50 values of the last two compounds are within 1.5-fold of each other.

In the case of `Cc1cccc(C(=O)N2CCC(S(=O)(=O)c3ccc(NC(=O)C4CN(c5cccnn5)C4)cc3)CC2)c1C` [Example 581, N-(4-{[1-(2,3-dimethylbenzoyl)piperidin-4-yl]sulfonyl}phenyl)-1-(pyridazin-3-yl)azetidine-3-carboxamide], 80.7 nM corresponded to half-maximal inhibition (IC50).

On to `COc1cccc(C(=O)N2CCC(c3ccc(NC(=O)C4CN(c5cccnn5)C4)cc3)CC2)c1` [Example 346, N-{4-[1-(3-methoxybenzoyl)piperidin-4-yl]phenyl}-1-(pyridazin-3-yl)azetidine-3-carboxamide], for which the IC50 amounted to 3.8 nM.

In turn, `O=C(Nc1ccc(O[C@@H]2CCN(C(=O)c3ccccn3)C2)cc1)C1CN(c2cccnn2)C1` [Example 505, 1-(pyridazin-3-yl)-N-(4-{[(3R)-1-(pyridin-2-ylcarbonyl)pyrrolidin-3-yl]oxy}phenyl)azetidine-3-carboxamide] yielded an IC50 of 6.84 nM. Compared with the last compound, the IC50 is about 1.8-fold higher.

As for `O=C(Nc1ccc(O[C@@H]2CCN(C(=O)Cc3cccc(F)c3)C2)cc1)C1CN(c2cccnn2)C1` [Example 494, N-[4-({(3R)-1-[(3-fluorophenyl)acetyl]pyrrolidin-3-yl}oxy)phenyl]-1-(pyridazin-3-yl)azetidine-3-carboxamide], the IC50 came to 1.05 nM. This IC50 lies about 6.5-fold lower than the previous one.

For `Cc1ncccc1N1CC(C(=O)Nc2ccc(C3CCN(C(=O)C(C)(C)C)CC3)cc2)C1` [Example 185, N-{4-[1-(2,2-dimethylpropanoyl)piperidin-4-yl]phenyl}-1-(2-methylpyridin-3-yl)azetidine-3-carboxamide], the IC50 stood at 74.2 nM.

The compound `COc1ccccc1C(=O)N1CCC(S(=O)(=O)c2ccc(NC(=O)C3CN(c4cccnn4)C3)cc2)CC1` [Example 570, N-(4-{[1-(2-methoxybenzoyl)piperidin-4-yl]sulfonyl}phenyl)-1-(pyridazin-3-yl)azetidine-3-carboxamide] showed an IC50 of 631 nM.

`O=C(Nc1ccc(OC2CCN(C(=O)Cc3ccccc3F)CC2)cc1)C1CN(c2cccnn2)C1` [Example 247, N-[4-({1-[(2-fluorophenyl)acetyl]piperidin-4-yl}oxy)phenyl]-1-(pyridazin-3-yl)azetidine-3-carboxamide] displayed an IC50 of 7.98 nM.

As for `O=C(Nc1ccc(OC2CCN(C(=O)c3cscn3)CC2)cc1)C1CN(c2cccnn2)C1` [Example 218, 1-(pyridazin-3-yl)-N-(4-{[1-(1,3-thiazol-4-ylcarbonyl)piperidin-4-yl]oxy}phenyl)azetidine-3-carboxamide], the midpoint of inhibition, the IC50, lay at 8.86 nM.

As to `O=C(Nc1ccc(C2CCN(C(=O)Cc3cccc(Cl)c3)CC2)cc1)C1CN(c2cccnn2)C1` [Example 404, N-(4-{1-[(3-chlorophenyl)acetyl]piperidin-4-yl}phenyl)-1-(pyridazin-3-yl)azetidine-3-carboxamide], the IC50 was 2.7 nM.

The compound `Cc1ncccc1N1CC(C(=O)Nc2ccc(C3CCN(C(=O)CN4CCCC4)CC3)cc2)C1` [Example 166, 1-(2-methylpyridin-3-yl)-N-{4-[1-(pyrrolidin-1-ylacetyl)piperidin-4-yl]phenyl}azetidine-3-carboxamide] yielded a concentration for half-maximal inhibition (IC50) of 1070 nM.
